Assay results published in patent publication US9808482B2, “Sulphated hyaluronic acids as regulator agents of the cytokine activity” (FIDIA FARMACEUTICI S.p.A., priority 2009, dated 2017).

Legend:
[1] = tested on: Vesicular stomatitis virus; format: cell-based; settings: E6SM cells; samples average MW 200 KD; FIG. 11
[2] = target: T1, IL-1 receptor (Mus musculus, UniProt P13504); experiment: Inhibition of the binding of 125I-IL-1 to its receptor on 3T3 fibroblasts (radioligand binding); design: species or system mice; settings: HAS degree 3, both medium and low MW; 3T3 cells, 1 mg/ml, 125I-IL-1 10 pM, 37° C. 2 hours; FIG. 4
T1 construct: the line of murine fibroblasts 3T3 was used, sensitive to the cytotoxic activity of IL-1, expressing its relative receptor; endogenous in cells; host or cells: 3T3 murine fibroblasts
T1 sequence (P13504 20-576): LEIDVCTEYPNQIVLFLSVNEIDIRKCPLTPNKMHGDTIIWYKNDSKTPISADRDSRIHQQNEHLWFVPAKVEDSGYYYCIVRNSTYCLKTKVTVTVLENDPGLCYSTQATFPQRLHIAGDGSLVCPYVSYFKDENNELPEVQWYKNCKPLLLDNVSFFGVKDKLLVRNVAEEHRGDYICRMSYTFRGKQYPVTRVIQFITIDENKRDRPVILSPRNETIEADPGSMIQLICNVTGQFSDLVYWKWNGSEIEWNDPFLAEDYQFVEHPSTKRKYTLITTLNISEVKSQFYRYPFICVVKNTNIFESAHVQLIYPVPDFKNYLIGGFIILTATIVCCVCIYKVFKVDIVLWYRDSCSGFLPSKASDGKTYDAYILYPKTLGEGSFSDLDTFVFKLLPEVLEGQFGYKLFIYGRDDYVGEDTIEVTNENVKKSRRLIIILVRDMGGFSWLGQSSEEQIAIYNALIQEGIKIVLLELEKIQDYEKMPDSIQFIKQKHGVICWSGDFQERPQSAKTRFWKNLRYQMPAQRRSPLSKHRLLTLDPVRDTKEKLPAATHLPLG
Procedure: The experimental procedure was effected as described in Chin J et al., J Exp Med, 1987, 165:70-86. In short, the line of murine fibroblasts 3T3 was used, sensitive to the cytotoxic activity of IL-1, expressing its relative receptor. […] At the end of the incubation, the cells were washed with phosphate buffer, then dissolved in 2.5 M of NaOH and counted in a γ-counter.

[3] = target: T2, IL-6 receptor (Homo sapiens, UniProt P08887); experiment: Inhibition of the binding of 125I-IL-6 to its receptor on human myeloma U266 (radioligand binding); settings: HAS degree 3, both medium and low MW; U266 cells, 1 mg/ml, 125I-IL-6 0.08 nM, 4° C. 16 hours; FIG. 5
T2 construct: the line of human myeloma U266 was used, sensitive to the cytotoxic activity of IL-6, expressing its relative receptor; endogenous in cells; host or cells: U266 human myeloma cells
T2 sequence (P08887 20-468): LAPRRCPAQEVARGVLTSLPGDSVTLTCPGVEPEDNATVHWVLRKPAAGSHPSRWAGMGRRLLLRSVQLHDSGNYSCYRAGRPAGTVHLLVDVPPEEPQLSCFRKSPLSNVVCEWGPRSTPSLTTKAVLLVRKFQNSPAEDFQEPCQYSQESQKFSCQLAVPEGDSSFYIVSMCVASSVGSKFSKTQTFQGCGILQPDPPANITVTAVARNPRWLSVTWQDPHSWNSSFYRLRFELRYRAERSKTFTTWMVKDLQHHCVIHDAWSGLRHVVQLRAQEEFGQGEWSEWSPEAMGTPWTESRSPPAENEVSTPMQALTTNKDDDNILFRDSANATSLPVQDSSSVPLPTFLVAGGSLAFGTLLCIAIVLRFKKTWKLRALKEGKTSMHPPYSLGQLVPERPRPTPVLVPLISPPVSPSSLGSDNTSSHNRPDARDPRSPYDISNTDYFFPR
Procedure: The experimental procedure was effected as described in Taga T. et al., J Exp Med, 1987, 166:967-981. In short, the line of human myeloma U266 was used, sensitive to the cytotoxic activity of IL-6, expressing its relative receptor. […] At the end of the incubation, the cells were washed with phosphate buffer, centrifuged at 9,000 rpm and the pellet counted in a γ-counter.

[4] = tested on: IL-10; experiment: Protein synthesis of IL-10 in human PBMC; format: cell-based; settings: 0.1 or 1 mg/ml, 24 hours, FIG. 9 (HAS1, HAS3)
Procedure: For these experimentations, mononucleate cells of human peripheral blood (PBMC) were adopted, deriving from many different donors for evaluating the effect of HAS on the production of the cytokines listed above, using: • non-sulfated HA (average MW: 200 KD), • HAS1 and HAS3 (prepared as described in Examples 1-3 (average MW: 200 KD). […] At day zero 100,000 cells were seeded per well (using plates with 96 wells) in 200 μl of medium RPMI 1640, to which 10% of fetal bovine serum, HEPES 10 mM, Glutamine 2 mM, 1% Penicillin-Streptomycin 100 U/ml, had been added. The effect of all the samples was evaluated on non-treated PBMC with agents which stimulate the synthesis of cytokines, or stimulated with Lipopolysaccharide LPS (10 μg/ml) (highly pro-inflammatory) or with Phytohemagglutinin PHA (10 μg/ml) (a substance capable of stimulating the lymphocytes to divide themselves), both agents capable of stimulating the synthesis of cytokines. The cells were treated separately with the three compounds at a concentration of 0.1 mg/ml or 1 mg/ml. After 24 hours of incubation at 37° C. […] The quantification of the inflammation mediators was effected by means of the SearchLight® technology, using a Custom Human 9-Plex Array plate following the protocol indicated by the supplier in the technical card.

Nc1nc2c(ncn2COCCO)c(=O)[nH]1 [acyclovir]
antiviral activity vs VSV (inhibition of cytopathogenicity) [1]: inactive

sulfated hyaluronic acid [HAS]
inhibition of the binding of IL-1 to its receptor [2]: 30%
inhibition of the binding of IL-6 to its receptor [3]: up to 100%
production of IL-10 [4]: evident stimulus
